From ChEMBL document CHEMBL1201862, “PubChem BioAssay data set” (2004)
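96-well plates; 48 h exposure; 5 concentrations. Endpoints by linear interpolation between flanking doses. Not reached: highest tested concentration assigned. Here, GI50 denotes the concentration required for 50% inhibition of growth.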 Active and inactive are the calls of the source. Cut-off read from the data, not from the text of the source: active = GI50 up to about 1.1 µM and inactive = higher.

Legend:
Test in all cases: DTP human tumour cell line panel, 48 h
UACC-62 = tested on: UACC-62
SF-295 = tested on: SF-295
SF-268 = tested on: SF-268
LOX IMVI = tested on: LOX IMVI
MDA-N = tested on: MDA-N
RXF 393 = tested on: RXF 393
T47D = tested on: T47D
HCT-15 = tested on: HCT-15
OVCAR-3 = tested on: OVCAR-3
MCF7 = tested on: MCF7
UACC-257 = tested on: UACC-257
CCRF-CEM = tested on: CCRF-CEM
SK-MEL-2 = tested on: SK-MEL-2
K562 = tested on: K562
CAKI-1 = tested on: CAKI-1
Malme-3M = tested on: Malme-3M
ACHN = tested on: ACHN
UO-31 = tested on: UO-31
HCT-116 = tested on: HCT-116
OVCAR-5 = tested on: OVCAR-5

| Structure (SMILES) | GI50 (UACC-62) | GI50 (SF-295) | GI50 (SF-268) | GI50 (LOX IMVI) | GI50 (MDA-N) | GI50 (RXF 393) | GI50 (T47D) | GI50 (HCT-15) [µM] | GI50 (OVCAR-3) | GI50 (MCF7) | GI50 (UACC-257) | GI50 (CCRF-CEM) | GI50 (SK-MEL-2) | GI50 (K562) | GI50 (CAKI-1) | GI50 (Malme-3M) | GI50 (ACHN) | GI50 (UO-31) | GI50 (HCT-116) | GI50 (OVCAR-5) |
| --- | --- | --- | --- | --- | --- | --- | --- | --- | --- | --- | --- | --- | --- | --- | --- | --- | --- | --- | --- | --- |
| CN(CCn1cnc2c1c(=O)n(C)c(=O)n2C)C1CCCCC1 | > 100 µM (inactive) | > 100 µM (inactive) | > 100 µM (inactive) | > 100 µM (inactive) | > 100 µM (inactive) | > 100 µM (inactive) | > 100 µM (inactive) | > 100 | > 100 µM (inactive) | > 100 µM (inactive) | > 100 µM (inactive) | > 100 µM (inactive) | > 100 µM (inactive) | > 100 µM (inactive) | > 100 µM (inactive) | > 100 µM (inactive) | > 100 µM (inactive) | > 100 µM (inactive) | > 100 µM (inactive) | > 100 µM (inactive) |
| O=C(O)c1cccc(/[As]=[As]\c2cccc(C(=O)O)c2)c1 (stereo not given) | 33.3 µM (inactive) | > 100 µM (inactive) | 29.3 µM (inactive) | 18.2 µM (inactive) | 61.1 µM (inactive) | 26.9 µM (inactive) | 34.9 µM (inactive) | 36.3 | 34.4 µM (inactive) | 32.9 µM (inactive) | 40.9 µM (inactive) | 21.9 µM (inactive) | 21.7 µM (inactive) | 34.7 µM (inactive) | 16.4 µM (inactive) | 21.4 µM (inactive) | 73.3 µM (inactive) | 38.2 µM (inactive) | 36.9 µM (inactive) | 24.5 µM (inactive) |
| C[C@]12CC[C@@H]3c4cc(Br)c(O)c(Br)c4CC[C@H]3[C@@H]1CCC2=O | 16.3 µM (inactive) | 16.4 µM (inactive) | 23.3 µM (inactive) | 20.4 µM (inactive) | 33.1 µM (inactive) | 16.7 µM (inactive) | 33.9 µM (inactive) | 12.4 | 16.4 µM (inactive) | 21.4 µM (inactive) | 20.9 µM (inactive) | 24.7 µM (inactive) | 15 µM (inactive) | 18 µM (inactive) | 18.9 µM (inactive) | 85.9 µM (inactive) | 13.5 µM (inactive) | 11.9 µM (inactive) | 27.5 µM (inactive) | 21.8 µM (inactive) |
| O=C(O)c1cc(/C=C/c2ccc(O)c(O)c2)ccc1O | > 100 µM (inactive) | > 100 µM (inactive) | > 100 µM (inactive) | > 100 µM (inactive) | 34.8 µM (inactive) | 28.1 µM (inactive) | > 100 µM (inactive) | > 100 | > 100 µM (inactive) | 23.1 µM (inactive) | > 100 µM (inactive) | 24.5 µM (inactive) | > 100 µM (inactive) | 20.3 µM (inactive) | 32.7 µM (inactive) | > 100 µM (inactive) | > 100 µM (inactive) | > 100 µM (inactive) | 40 µM (inactive) | > 100 µM (inactive) |
| O=C(CNc1ccc2c(=S)c3ccccc3[nH]c2c1)Nc1ccccc1-c1ccccc1NC(=O)CNc1ccc2c(=S)c3ccccc3[nH]c2c1 | 18.2 µM (inactive) | 21.2 µM (inactive) | 22 µM (inactive) | 19.9 µM (inactive) | 18.1 µM (inactive) | 27 µM (inactive) | 15.6 µM (inactive) | 19.4 | 24.8 µM (inactive) | 16.4 µM (inactive) | 21 µM (inactive) | 2.73 µM (inactive) | 15.6 µM (inactive) | 2.85 µM (inactive) | 30.1 µM (inactive) | 15.7 µM (inactive) | 15.8 µM (inactive) | 15.3 µM (inactive) | 18.5 µM (inactive) | 28.7 µM (inactive) |
